Measurements reported in US12281149B2, “Modulators of G-protein coupled receptors” (priority 2021, dated 2025).
pEC50: −log10 of the molar value. *1 amine or outer side, *2 acyl side, *3 side chain or, on linkers, in order; H or OH if unused. Where a SMILES comes first, the peptide text is derived from it. Side-chain parts run from the residue outwards. [ ]: non-standard residue; d: D form. The star is where a group is joined. Isobutyryl(2-(3-CN-5-F-Ph)) = CC(C)(C(=O)*)c1cc(F)cc(C#N)c1; C20 diacid = O=C(O)CCCCCCCCCCCCCCCCCCC(=O)*; γGlu = O=C(O)[C@H](CCC(=O)[*:2])N[*:1]; AEEA = NCCOCCOCC(=O)O; Aib = CC(C)(N)C(=O)O; βAla = NCCC(=O)O

Legend:
Type in all cases: cell-based
[1] = molecular target: T1, GLP-1 receptor (Homo sapiens, UniProt P43220); experiment: HitHunter cAMP assay, GLP-1 receptor; conditions: for pEC50: CHO cells stably expressing human GLP-1 receptor, cAMP accumulation, 30 min, read-out: EC50 GLP-1R; for Emax: CHO cells, cAMP, normalized to maximum signal from GLP-1 (high) and DMSO (low), read-out: Emax GLP-1R
T1 sequence (P43220 24-463): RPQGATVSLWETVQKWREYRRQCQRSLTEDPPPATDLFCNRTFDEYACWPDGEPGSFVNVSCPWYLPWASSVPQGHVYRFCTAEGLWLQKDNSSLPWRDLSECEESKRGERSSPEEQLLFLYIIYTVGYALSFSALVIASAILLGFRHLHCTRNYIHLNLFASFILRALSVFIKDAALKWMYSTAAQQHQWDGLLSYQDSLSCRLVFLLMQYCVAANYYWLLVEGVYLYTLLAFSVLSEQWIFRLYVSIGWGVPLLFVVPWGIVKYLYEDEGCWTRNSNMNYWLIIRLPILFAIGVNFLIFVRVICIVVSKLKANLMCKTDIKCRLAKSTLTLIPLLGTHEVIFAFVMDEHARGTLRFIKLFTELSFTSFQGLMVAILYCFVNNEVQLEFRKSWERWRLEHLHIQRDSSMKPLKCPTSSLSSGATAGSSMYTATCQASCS

[2] = molecular target: T2, GIP receptor (Homo sapiens, UniProt P48546); experiment: HitHunter cAMP assay, GIP receptor; conditions: for pEC50: CHO cells stably expressing GIP receptor, cAMP accumulation, 30 min, read-out: EC50 GIP-1R; for Emax: CHO cells, cAMP, normalized to maximum signal from GIP (high) and DMSO (low), read-out: Emax GIP-1R
T2 sequence (P48546 22-466): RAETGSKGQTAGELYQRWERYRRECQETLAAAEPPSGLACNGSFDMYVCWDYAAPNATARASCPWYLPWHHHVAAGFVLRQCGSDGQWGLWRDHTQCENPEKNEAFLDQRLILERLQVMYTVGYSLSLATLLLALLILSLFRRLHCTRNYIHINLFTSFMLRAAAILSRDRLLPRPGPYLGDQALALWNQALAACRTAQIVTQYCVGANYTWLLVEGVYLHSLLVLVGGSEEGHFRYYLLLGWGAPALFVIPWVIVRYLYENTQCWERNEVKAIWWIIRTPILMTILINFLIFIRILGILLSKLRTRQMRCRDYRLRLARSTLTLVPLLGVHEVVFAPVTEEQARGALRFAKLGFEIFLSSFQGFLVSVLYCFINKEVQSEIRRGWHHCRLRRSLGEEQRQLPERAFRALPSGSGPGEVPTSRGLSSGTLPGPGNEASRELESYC

[3] = molecular target: T2, GIP receptor; experiment: PathHunter β-arrestin assay, GIP receptor; design: host or cells: PathHunter CHO-K1 GIPR β-Arrestin Cell Line; conditions: β-arrestin-2 recruitment, PathHunter CHO-K1 GIPR β-Arrestin Cell Line, 90 min at 37° C.; normalized to GIP; read-out: GIPR β Arrestin EC50
[4] = molecular target: T1, GLP-1 receptor; experiment: PathHunter β-arrestin assay, GLP-1 receptor; design: host or cells: PathHunter CHO-K1 GLP1R β-Arrestin Cell Line; conditions: β-arrestin-2 recruitment, PathHunter CHO-K1 GLP1R β-Arrestin Cell Line, 90 min at 37° C.; normalized to GLP-1; read-out: GLP-1R β Arrestin EC50

SMILES	pEC50 [1]	Emax [1]	pEC50 [2]	Emax [2]	pEC50 [3]	pEC50 [4]
CC[C@H](C)[C@H](NC(=O)[C@H](CC(C)C)NC(=O)[C@H](Cc1c[nH]c2ccccc12)NC(=O)[C@H](CCC(N)=O)NC(=O)[C@@H](NC(=O)[C@H](Cc1ccccc1)NC(=O)[C@H](CCC(=O)O)NC(=O)[C@H](CCCCNC(=O)COCCOCCNC(=O)COCCOCCNC(=O)CC[C@H](NC(=O)CCCCCCCCCCCCCCCCCCC(=O)O)C(=O)O)NC(=O)[C@H](CCC(N)=O)NC(=O)[C@H](C)NC(=O)[C@@H](NC(=O)[C@H](CCCCN)NC(=O)[C@H](CC(=O)O)NC(=O)[C@H](CC(C)C)NC(=O)C(C)(C)NC(=O)[C@@H](NC(=O)[C@H](CO)NC(=O)[C@H](Cc1ccc(O)cc1)NC(=O)[C@H](CC(=O)O)NC(=O)[C@H](CO)NC(=O)[C@@H](NC(=O)[C@H](Cc1ccccc1)NC(=O)[C@@H](NC(=O)CNC(=O)[C@H](CCC(=O)O)NC(=O)CCNC(=O)C(C)(C)c1cc(F)cc(C#N)c1)[C@@H](C)O)[C@@H](C)O)[C@@H](C)CC)[C@@H](C)CC)C(C)C)C(=O)N[C@@H](C)C(=O)NCC(=O)NCC(=O)N1CCC[C@H]1C(=O)N[C@@H](CO)C(=O)N[C@@H](CO)C(=O)NCC(=O)N[C@@H](C)C(=O)N1CCC[C@H]1C(=O)N1CCC[C@H]1C(=O)N1CCC[C@H]1C(=O)N[C@@H](CO)C(N)=O [Compound 196] ({Isobutyryl(2-(3-CN-5-F-Ph))-βAla}-EGTFTSDYSI[Aib]LDKIAQK([AEEA-AEEA-γGlu-C20 diacid])EFVQWLIAGGPSSGAPPPS-NH2)	9.00 to 10.00	95%	8.00 to 9.00	100%	< 6.00	< 6.00
CC[C@H](C)[C@H](NC(=O)[C@H](CO)NC(=O)[C@H](Cc1ccc(O)cc1)NC(=O)[C@H](CC(=O)O)NC(=O)[C@H](CO)NC(=O)[C@@H](NC(=O)[C@](C)(Cc1ccccc1F)NC(=O)[C@@H](NC(=O)CNC(=O)[C@H](CCC(=O)O)NC(=O)CCNC(=O)C1(c2ccc(Cl)cc2)CCCC1)[C@@H](C)O)[C@@H](C)O)C(=O)N[C@@H](Cc1ccc(O)cc1)C(=O)N[C@@H](CC(C)C)C(=O)N[C@@H](CC(=O)O)C(=O)N[C@@H](CCCCN)C(=O)N[C@@H](CCC(N)=O)C(=O)N[C@@H](C)C(=O)N[C@@H](C)C(=O)NC(C)(C)C(=O)N[C@@H](CCC(=O)O)C(=O)N[C@@H](Cc1ccccc1)C(=O)N[C@H](C(=O)N[C@@H](CC(N)=O)C(=O)N[C@@H](Cc1c[nH]c2ccccc12)C(=O)N[C@@H](CC(C)C)C(=O)N[C@@H](CC(C)C)C(=O)N[C@@H](C)C(=O)NCC(=O)NCC(=O)N1CCC[C@H]1C(=O)N[C@@H](CO)C(=O)N[C@@H](CO)C(=O)NCC(=O)N[C@@H](C)C(=O)N1CCC[C@H]1C(=O)N1CCC[C@H]1C(=O)N1CCC[C@H]1C(=O)N[C@@H](CO)C(=O)N[C@@H](CCCCNC(=O)COCCOCCNC(=O)COCCOCCNC(=O)CC[C@H](NC(=O)CCCCCCCCCCCCCCCCCCC(=O)O)C(=O)O)C(N)=O)C(C)C [Compound 141]	9.00 to 10.00	97%	9.00 to 10.00	108%	> 6.00	< 6.00
CC[C@H](C)[C@H](NC(=O)[C@H](CO)NC(=O)[C@H](Cc1ccc(O)cc1)NC(=O)[C@H](CC(=O)O)NC(=O)[C@H](CO)NC(=O)[C@@H](NC(=O)[C@](C)(Cc1ccccc1F)NC(=O)[C@@H](NC(=O)CNC(=O)[C@H](CCC(=O)O)NC(=O)CCNC(=O)C1(c2ccccc2)CNC(=O)C1)[C@@H](C)O)[C@@H](C)O)C(=O)N[C@@H](Cc1ccc(O)cc1)C(=O)N[C@@H](CC(C)C)C(=O)N[C@@H](CC(=O)O)C(=O)N[C@@H](CCCCN)C(=O)N[C@@H](CCC(N)=O)C(=O)N[C@@H](C)C(=O)N[C@@H](C)C(=O)NC(C)(C)C(=O)N[C@@H](CCC(=O)O)C(=O)N[C@@H](Cc1ccccc1)C(=O)N[C@H](C(=O)N[C@@H](CC(N)=O)C(=O)N[C@@H](Cc1c[nH]c2ccccc12)C(=O)N[C@@H](CC(C)C)C(=O)N[C@@H](CC(C)C)C(=O)N[C@@H](C)C(=O)NCC(=O)NCC(=O)N1CCC[C@H]1C(=O)N[C@@H](CO)C(=O)N[C@@H](CO)C(=O)NCC(=O)N[C@@H](C)C(=O)N1CCC[C@H]1C(=O)N1CCC[C@H]1C(=O)N1CCC[C@H]1C(=O)N[C@@H](CO)C(=O)N[C@@H](CCCCNC(=O)COCCOCCNC(=O)COCCOCCNC(=O)CC[C@H](NC(=O)CCCCCCCCCCCCCCCCCCC(=O)O)C(=O)O)C(N)=O)C(C)C (stereo partly drawn) [Compound 142]	9.00 to 10.00	99%	> 10.00	99%	> 6.00	> 6.00
CC[C@H](C)[C@H](NC(=O)[C@H](CO)NC(=O)[C@H](Cc1ccc(O)cc1)NC(=O)[C@H](CC(=O)O)NC(=O)[C@H](CO)NC(=O)[C@@H](NC(=O)[C@H](Cc1ccccc1)NC(=O)[C@@H](NC(=O)CNC(=O)[C@H](CCC(=O)O)NC(=O)CCNC(=O)[C@]1(c2ccccc2)CNC(=O)C1)[C@@H](C)O)[C@@H](C)O)C(=O)N[C@@H](Cc1ccc(O)cc1)C(=O)N[C@@H](CC(C)C)C(=O)N[C@@H](CC(=O)O)C(=O)N[C@@H](CCCCN)C(=O)N[C@@H](CCC(N)=O)C(=O)N[C@@H](C)C(=O)N[C@@H](C)C(=O)NC(C)(C)C(=O)N[C@@H](CCC(=O)O)C(=O)N[C@@H](Cc1ccccc1)C(=O)N[C@H](C(=O)N[C@@H](CCCCNC(=O)COCCOCCNC(=O)COCCOCCNC(=O)CC[C@H](NC(=O)CCCCCCCCCCCCCCCCCCC(=O)O)C(=O)O)C(=O)N[C@@H](Cc1c[nH]c2ccccc12)C(=O)N[C@@H](CC(C)C)C(=O)N[C@@H](CC(C)C)C(=O)N[C@@H](C)C(=O)NCC(=O)NCC(=O)N1CCC[C@H]1C(=O)N[C@@H](CO)C(=O)N[C@@H](CO)C(=O)NCC(=O)N[C@@H](C)C(=O)N1CCC[C@H]1C(=O)N1CCC[C@H]1C(=O)N1CCC[C@H]1C(=O)N[C@@H](CO)C(N)=O)C(C)C (single isomer, unassigned) [Compound 102]	9.00 to 10.00	91%	8.00 to 9.00	101%	< 6.00	< 6.00
CC[C@H](C)[C@H](NC(=O)[C@H](CO)NC(=O)[C@H](Cc1ccc(O)cc1)NC(=O)[C@H](CC(=O)O)NC(=O)[C@H](CO)NC(=O)[C@@H](NC(=O)[C@H](Cc1ccccc1)NC(=O)[C@@H](NC(=O)CNC(=O)[C@H](CCC(=O)O)NC(=O)CCNC(=O)C(C)(C)c1cc(F)cc(C#N)c1)[C@@H](C)O)[C@@H](C)O)C(=O)N[C@@H](Cc1ccc(O)cc1)C(=O)N[C@@H](CC(C)C)C(=O)N[C@@H](CC(=O)O)C(=O)N[C@@H](CCCCN)C(=O)N[C@@H](CCCCNC(=O)COCCOCCNC(=O)COCCOCCNC(=O)CC[C@H](NC(=O)CCCCCCCCCCCCCCCCCCC(=O)O)C(=O)O)C(=O)N[C@@H](C)C(=O)N[C@@H](C)C(=O)NC(C)(C)C(=O)N[C@@H](CCC(=O)O)C(=O)N[C@@H](Cc1ccccc1)C(=O)N[C@H](C(=O)N[C@@H](CC(N)=O)C(=O)N[C@@H](Cc1c[nH]c2ccccc12)C(=O)N[C@@H](CC(C)C)C(=O)N[C@@H](CC(C)C)C(=O)N[C@@H](C)C(=O)NCC(=O)NCC(=O)N1CCC[C@H]1C(=O)N[C@@H](CO)C(=O)N[C@@H](CO)C(=O)NCC(=O)N[C@@H](C)C(=O)N1CCC[C@H]1C(=O)N1CCC[C@H]1C(=O)N1CCC[C@H]1C(=O)N[C@@H](CO)C(N)=O)C(C)C [Compound 114] ({Isobutyryl(2-(3-CN-5-F-Ph))-βAla}-EGTFTSDYSIYLDKK([AEEA-AEEA-γGlu-C20 diacid])AA[Aib]EFVNWLLAGGPSSGAPPPS-NH2)	9.00 to 10.00	114%	7.00 to 8.00	95%	< 6.00	< 6.00
CC[C@H](C)[C@H](NC(=O)[C@H](CO)NC(=O)[C@H](Cc1ccc(O)cc1)NC(=O)[C@H](CC(=O)O)NC(=O)[C@H](CO)NC(=O)[C@@H](NC(=O)[C@H](Cc1ccccc1)NC(=O)[C@@H](NC(=O)CNC(=O)[C@H](CCC(=O)O)NC(=O)CCNC(=O)[C@]1(c2ccccc2)CNC(=O)C1)[C@@H](C)O)[C@@H](C)O)C(=O)N[C@@H](Cc1ccc(O)cc1)C(=O)N[C@@H](CC(C)C)C(=O)N[C@@H](CC(=O)O)C(=O)N[C@@H](CCCCN)C(=O)N[C@@H](CCC(N)=O)C(=O)N[C@@H](C)C(=O)N[C@@H](C)C(=O)NC(C)(C)C(=O)N[C@@H](CCC(=O)O)C(=O)N[C@@H](Cc1ccccc1)C(=O)N[C@H](C(=O)N[C@@H](CC(N)=O)C(=O)N[C@@H](Cc1c[nH]c2ccccc12)C(=O)N[C@@H](CC(C)C)C(=O)N[C@@H](CC(C)C)C(=O)N[C@@H](C)C(=O)NCC(=O)NCC(=O)N1CCC[C@H]1C(=O)N[C@@H](CO)C(=O)N[C@@H](CO)C(=O)NCC(=O)N[C@@H](C)C(=O)N1CCC[C@H]1C(=O)N1CCC[C@H]1C(=O)N1CCC[C@H]1C(=O)N[C@@H](CO)C(=O)N[C@@H](CCCCNC(=O)COCCOCCNC(=O)COCCOCCNC(=O)CC[C@H](NC(=O)CCCCCCCCCCCCCCCCCCC(=O)O)C(=O)O)C(N)=O)C(C)C (single isomer, unassigned) [Compound 130]	8.00 to 9.00	107%	8.00 to 9.00	106%	< 6.00	< 6.00
